Measured values as given in patent US6566081B1, “Methods of identifying a compound which modulates the non-transcriptional non-map-kinase induced effects of steroid hormones” (The Brigham and Women's Hospital, Inc., priority 1999, dated 2003).

Target: T1, eNOS (Mus musculus, UniProt P70313)
T1 construct: from tissue; host or cells: cremaster muscle of male C57BL/6 mice
Assay: Cremaster eNOS activity in mice
Type: in vivo
Conditions: mice with 1.5 mg slow-release E2 tablets s.c.
Procedure: Mice were anesthetized and the cremaster muscle was studied under intravital microscopy^28. Ischemia was induced by applying pressure to supplying arteries just sufficient to stop blood flow for 30 min. In some experiments, wortmannin (100 nM) or L-NAME (0.1 mM) was applied to the cremaster muscle during the ischemic period. The pressure was released for reperfusion, and the same vessels were recorded in each animal before and after I/R. The rolling velocities of 25 leukocytes were measured in each venule; sorted and averaged for each rank to construct cumulative histograms. The velocities of 3,750 leukocytes were measured in 150 venules before and after I/R. The number of firmly adherent leukocytes was measured before and after I/R in the same 200 μm long segments of venules. The following number of venules were studies for leukocyte adhesion: Untreated, 15 venules; E2-treated, 20 venules; E2-treated with wortmannin, 25 venules; E2-treated with L-NAME, 15 venules. Cremaster eNOS activity was measured in 3 untreated, 4 E2-treated, 5 E2-treated with wortmannin, and 4 E2-treated with L-NAME mice.

T1 sequence (P70313 2-1202): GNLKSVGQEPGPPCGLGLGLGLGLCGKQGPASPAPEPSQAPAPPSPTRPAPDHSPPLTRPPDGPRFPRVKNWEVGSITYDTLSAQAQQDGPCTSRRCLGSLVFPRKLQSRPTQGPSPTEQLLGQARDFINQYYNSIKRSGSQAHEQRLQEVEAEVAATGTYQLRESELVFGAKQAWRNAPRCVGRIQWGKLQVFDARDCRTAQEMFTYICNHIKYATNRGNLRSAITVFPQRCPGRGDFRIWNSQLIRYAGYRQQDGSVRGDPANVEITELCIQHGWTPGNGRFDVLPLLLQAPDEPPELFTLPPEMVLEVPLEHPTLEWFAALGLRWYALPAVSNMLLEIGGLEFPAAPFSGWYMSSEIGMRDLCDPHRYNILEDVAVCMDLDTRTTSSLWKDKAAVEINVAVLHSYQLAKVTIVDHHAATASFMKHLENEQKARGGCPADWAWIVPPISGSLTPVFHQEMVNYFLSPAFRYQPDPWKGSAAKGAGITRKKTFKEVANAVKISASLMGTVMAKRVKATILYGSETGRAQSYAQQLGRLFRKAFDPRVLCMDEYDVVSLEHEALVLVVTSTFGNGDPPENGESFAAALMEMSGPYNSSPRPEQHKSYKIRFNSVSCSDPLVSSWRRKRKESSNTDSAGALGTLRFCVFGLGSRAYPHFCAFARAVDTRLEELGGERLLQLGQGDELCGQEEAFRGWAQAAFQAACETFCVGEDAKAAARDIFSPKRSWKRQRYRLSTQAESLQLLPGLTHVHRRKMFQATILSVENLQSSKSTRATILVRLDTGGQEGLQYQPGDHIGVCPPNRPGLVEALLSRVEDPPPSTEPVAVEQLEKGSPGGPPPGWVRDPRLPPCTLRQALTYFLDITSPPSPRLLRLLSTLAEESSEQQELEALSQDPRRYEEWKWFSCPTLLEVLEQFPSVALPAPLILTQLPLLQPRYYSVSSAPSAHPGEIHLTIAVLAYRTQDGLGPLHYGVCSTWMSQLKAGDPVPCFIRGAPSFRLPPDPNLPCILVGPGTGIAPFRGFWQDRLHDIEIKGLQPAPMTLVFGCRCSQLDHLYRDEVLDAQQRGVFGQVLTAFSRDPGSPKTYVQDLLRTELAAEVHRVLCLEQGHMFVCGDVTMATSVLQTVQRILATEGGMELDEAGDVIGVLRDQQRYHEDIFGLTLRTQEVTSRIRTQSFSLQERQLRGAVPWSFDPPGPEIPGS

With 17β-estradiol [E2] the “increase in eNOS activity in cremaster muscle” value was 3.2 fold.
